`Cn1cc(C(=O)NCC#Cc2ccccc2-c2ccc(Br)cc2)c(C(F)(F)F)n1` [Compound 2.010, 1-Methyl-3-trifluoromethyl-1H-pyrazole-4-carboxylic acid (4′-bromobiphenyl-2-yl)prop-2-ynyl-amide] showed a melting point of 171 to 172 °C. In the case of `Cn1cc(C(=O)NC=C=Cc2ccccc2-c2ccc(Br)cc2)c(C(F)(F)F)n1` [Compound 2.123, 1-Methyl-3-trifluoromethyl-1H-pyrazole-4-carboxylic acid (4′-bromobiphenyl-2-yl)propa-1,2-dienyl-amide], the melting point is reported as 146 to 149 °C. `C#CCN(C(=O)c1cn(C)cc1C(F)(F)F)c1cccc2c1C(C)CC2(C)C` (stereo not drawn) [Compound 10.3, 1-methyl-4-trifluoromethyl-1H-pyrrole-3-carboxylic acid prop-2-ynyl-(1,1,3-trimethylindan-4-yl)amide] showed a melting point of 142 to 144 °C.

From patent US7332518B2, “Carboxamides as fungicides in agriculture” (Syngenta Crop Protection, Inc., priority 2001, dated 2008)
